Experimental data reported in PubChem BioAssay AID256 (DTP/NCI, 2004).
Several values for one entry are separate records, joined by “and”; a condition that tells them apart may be missing. Equal values may be shown once. Inconclusive results and toxic doses are left out.

Tested on: CD2F1 mice, L1210 leukemia ip, survival T/C
Assay: NCI In Vivo Anticancer Drug Screen. Data for tumor model L1210 Leukemia (intraperitoneal) in CD2F1 (CDF1) mice
Conditions: higher = longer survival
How it was run: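 Implant tumor; dose compound or vehicle; measure endpoint in both groups; report treated divided by control.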

[1] = endpoint: mean survival time, dose: 100.0 mg/kg/injection, schedule: Q01DX001 (ip), vehicle: Klucel (hydroxypropylcellulose) (HPC)
[2] = endpoint: mean survival time, dose: 200.0 mg/kg/injection, schedule: Q01DX001 (ip), vehicle: Klucel (hydroxypropylcellulose) (HPC)
[3] = endpoint: mean survival time, dose: 100.0 mg/kg/injection, schedule: Q01DX001 (ip), vehicle: saline with Tween-80
[4] = endpoint: mean survival time, dose: 200.0 mg/kg/injection, schedule: Q01DX001 (ip), vehicle: saline with Tween-80

COc1cccc2c1C(=O)c1c(O)c3c(c(O)c1C2=O)CC(O)(C(=O)CO)CC3OC1CC(N)C(O)C(C)O1 (stereo not given)
T/C (endpoint: mean survival time, dose: 0.31 mg/kg/injection, schedule: Q04DX003 (ip), vehicle: saline): 120 % of control
T/C (endpoint: mean survival time, dose: 0.62 mg/kg/injection, schedule: Q04DX003 (ip), vehicle: saline): 120 % of control
T/C (endpoint: mean survival time, dose: 3.13 mg/kg/injection, schedule: Q01DX009 (ip), vehicle: water): 117 % of control
T/C (endpoint: mean survival time, dose: 6.25 mg/kg/injection, schedule: Q01DX009 (ip), vehicle: water): 123 % of control
T/C (endpoint: mean survival time, dose: 12.5 mg/kg/injection, schedule: Q01DX009 (ip), vehicle: water): 202 % of control
T/C (endpoint: mean survival time, dose: 20.0 mg/kg/injection, schedule: Q04DX003 (ip), vehicle: saline): 152 % of control and 155 % of control
T/C (endpoint: mean survival time, dose: 25.0 mg/kg/injection, schedule: Q01DX009 (ip), vehicle: water): 151 % of control
T/C (endpoint: mean survival time, dose: 36.0 mg/kg/injection, schedule: Q01DX009 (ip), vehicle: water): 150 % of control
T/C (endpoint: mean survival time, dose: 40.0 mg/kg/injection, schedule: Q04DX003 (ip), vehicle: saline): 113 % of control
T/C (endpoint: mean survival time, dose: 80.0 mg/kg/injection, schedule: Q04DX003 (ip), vehicle: saline): 89 % of control

Cc1cc(N2CCN(C)CC2)n2nc(-c3ccc(Cl)cc3)nc2n1
T/C (endpoint: mean survival time, dose: 50.0 mg/kg/injection, schedule: Q01DX001 (ip), vehicle: Klucel (hydroxypropylcellulose) (HPC)): 120 % of control
T/C (endpoint: mean survival time, dose: 50.0 mg/kg/injection, schedule: Q01DX009 (ip), vehicle: Klucel (hydroxypropylcellulose) (HPC)): 100 % of control
T/C [1]: 95 % of control
T/C (endpoint: mean survival time, dose: 100.0 mg/kg/injection, schedule: Q01DX009 (ip), vehicle: Klucel (hydroxypropylcellulose) (HPC)): 99 % of control
T/C [2]: 93 % of control
T/C (endpoint: mean survival time, dose: 200.0 mg/kg/injection, schedule: Q01DX009 (ip), vehicle: Klucel (hydroxypropylcellulose) (HPC)): 97 % of control

COCC(O)CN1CCN(c2cccc3c2CCCC3)CC1 (stereo not given)
T/C [3]: 97 % of control
T/C [4]: 100 % of control

S=C=NCCCCCCN=C=S
T/C (endpoint: mean survival time, dose: 6.25 mg/kg/injection, schedule: Q04DX002 (ip), vehicle: saline): 104 % of control
T/C (endpoint: mean survival time, dose: 12.5 mg/kg/injection, schedule: Q04DX002 (ip), vehicle: saline): 98 % of control
T/C (endpoint: mean survival time, dose: 25.0 mg/kg/injection, schedule: Q04DX002 (ip), vehicle: saline): 90 % of control and 102 % of control
T/C (endpoint: mean survival time, dose: 50.0 mg/kg/injection, schedule: Q04DX002 (ip), vehicle: saline): 98 % of control

Cc1cc(NC(=O)NC/C(Cl)=C/Cl)c2ccccc2n1
T/C [3]: 93 % of control
T/C [4]: 93 % of control
T/C (endpoint: mean survival time, dose: 400.0 mg/kg/injection, schedule: Q01DX001 (ip), vehicle: saline with Tween-80): 98 % of control

CCOC(=O)C(SC)(SC)C(=O)OCC
T/C [1]: 106 % of control
T/C [2]: 109 % of control
T/C (endpoint: mean survival time, dose: 400.0 mg/kg/injection, schedule: Q01DX001 (ip), vehicle: Klucel (hydroxypropylcellulose) (HPC)): 103 % of control

CCCCCCCCCCSCC
T/C (endpoint: mean survival time, dose: 100.0 mg/kg/injection, schedule: Q01DX009 (ip), vehicle: saline): 101 % of control
T/C (endpoint: mean survival time, dose: 100.0 mg/kg/injection, schedule: Q04DX003 (ip), vehicle: saline): 103 % of control
T/C (endpoint: mean survival time, dose: 200.0 mg/kg/injection, schedule: Q01DX009 (ip), vehicle: saline): 104 % of control
T/C (endpoint: mean survival time, dose: 200.0 mg/kg/injection, schedule: Q04DX003 (ip), vehicle: saline): 103 % of control
T/C (endpoint: mean survival time, dose: 400.0 mg/kg/injection, schedule: Q01DX009 (ip), vehicle: saline): 101 % of control
T/C (endpoint: mean survival time, dose: 400.0 mg/kg/injection, schedule: Q04DX003 (ip), vehicle: saline): 103 % of control

CC(=O)OC(c1ccccc1)(c1ccccc1)c1ccncc1
T/C (endpoint: mean survival time, dose: 100.0 mg/kg/injection, schedule: Q04DX003 (ip), vehicle: other): 93 % of control
T/C (endpoint: mean survival time, dose: 200.0 mg/kg/injection, schedule: Q04DX003 (ip), vehicle: other): 89 % of control
T/C (endpoint: mean survival time, dose: 400.0 mg/kg/injection, schedule: Q04DX003 (ip), vehicle: other): 93 % of control

Nc1ncnc2nc(CCCCc3ccccc3)[nH]c12
T/C (endpoint: mean survival time, dose: 3.0 mg/kg/injection, schedule: Q01DX009 (ip), vehicle: saline with Tween-80): 95 % of control
T/C (endpoint: mean survival time, dose: 6.0 mg/kg/injection, schedule: Q01DX009 (ip), vehicle: saline with Tween-80): 106 % of control
T/C (endpoint: mean survival time, dose: 12.0 mg/kg/injection, schedule: Q01DX009 (ip), vehicle: saline with Tween-80): 104 % of control

COC(=O)Nc1cn2cc(C(=O)c3cccs3)ccc2n1
T/C (endpoint: median survival time, dose: 6.25 mg/kg/injection, schedule: Q01DX009 (ip), vehicle: Klucel (hydroxypropylcellulose) (HPC)): 104 % of control
T/C (endpoint: median survival time, dose: 12.5 mg/kg/injection, schedule: Q01DX009 (ip), vehicle: Klucel (hydroxypropylcellulose) (HPC)): 112 % of control
T/C (endpoint: median survival time, dose: 25.0 mg/kg/injection, schedule: Q01DX009 (ip), vehicle: Klucel (hydroxypropylcellulose) (HPC)): 119 % of control
T/C (endpoint: median survival time, dose: 50.0 mg/kg/injection, schedule: Q01DX009 (ip), vehicle: Klucel (hydroxypropylcellulose) (HPC)): 124 % of control

CC1CN1C(=O)Nc1cccc2c(NC(=O)N3CC3C)cccc12 (stereo not given)
T/C (endpoint: mean survival time, dose: 28.0 mg/kg/injection, schedule: Q01DX009 (ip), vehicle: Klucel (hydroxypropylcellulose) (HPC)): 151 % of control
